{
  "source": "patent US11925696B2",
  "about": "“Carbonic anhydrase IX targeting agents and methods” (priority 2016, dated 2024)",
  "key": {"HT-29 cells [1]": {"test_system": "HT-29 cells", "test": "Fluorescent microscopy: binding of rhodamine-labeled CA IX conjugates to HT-29 cells", "format": "cell-based, human", "conditions": "1 hour at 37° C.; alone or plus 100-fold excess CA IX inhibitor; confocal microscopy", "protocol": "Fluorescent conjugates were incubated with HT-29 cells in the presence or absence of 100-fold excess unlabeled ligand. After washing, white light and fluorescent microscopy were used to visualize binding.\na. HT-29 cells (10^5) were seeded into chambered coverglass plates and allowed to grow to confluence over 48-72 hr. Spent medium was replaced with 0.5 mL of fresh medium containing 0.5% bovine serum albumin and various concentrations of the dye conjugate (L1-Rhodamine, L2-Rhodamine or L3-Rhodamine) alone or the dye conjugate plus 100-fold excess CA IX inhibitor L1, L2 or L3, where appropriate. After incubation for 1 hour at 37° C., cells were rinsed twice with 1 mL of incubation solution to remove unbound fluorescence and 0.5 ml of fresh incubation medium was added to the wells. Images were acquired using a confocal microscopy (FV 1000, Olympus)."}, "[2]": {"test_system": "HCT-116, HT-29, RCC4 and SK-RC-38 human cancer cell lines", "test": "Fluorescent microscopy: binding of L2-Rhodamine to CA IX expressing cell lines", "format": "cell-based", "protocol": "After washing, white light and fluorescent microscopy were used to visualize binding.\nb. HCT-116, HT-29, RCC4 and SK-RC-38 human cancer cell lines (10^5) were seeded into chambered coverglass plates and allowed to grow to confluence over 48-72 hr. […] After incubation for 1 hour at 37° C., cells were rinsed with incubation solution (2×1.0 mL) to remove unbound conjugate then washed with PBS (1×1.0 mL). Images were acquired using confocal microscopy (FV 1000, Olympus). […] Additionally, the punctate appearance in several of the cell lines is indicative of a rapid internalization of the bound conjugate."}, "HT-29 cells [3]": {"test_system": "HT-29 cells", "test": "99mTc conjugates binding to HT-29 cells (apparent KD, gamma counting)", "set-up": "species or system human", "conditions": "for Kd: 99mTc-bound conjugate, 1 h at 37° C., read-out: Binding Affinity (apparent KD)", "protocol": "HT-29 cells (150,000 cells/well in 500 μL) were seeded into 24-well Falcon plates and allowed to form monolayers over 48 h. […] After incubating for 1 h at 37° C., cells were rinsed twice with 1 mL of medium and 1 mL of tris buffer. After dissolving in 0.5 mL of 0.25 M NaOH (aq), cells were transferred into individual γ-counter tubes and radioactivity was counted using a γ-counter (Packard, Packard Instrument Company). Apparent KD was calculated by plotting bound radioactivity versus the concentration of radiotracer using GraphPad Prism 4."}, "HT-29 xenograft tumors": {"test_system": "HT-29 xenograft tumors", "conditions": "for relative average radioactive intensity in the tumor: 10 nmol tail vein, kidneys shielded", "protocol": "Whole animal images were taken 4 hours post-injection. […] The percentage of the injected dose per gram of tissue was determined and plotted. Error bars represent standard deviation. (□) Competition; (▪) L2-PEG36-EC20. […] Whole animal images were taken 9 hours post-injection. […] The percentage of the injected dose per gram of tissue was determined and plotted. Error bars represent standard deviation. (□) Competition; (▪) L2-PEG36-EC20. […] Whole animal images were taken 24 hours post-injection. […] The percentage of the injected dose per gram of tissue was determined and plotted. Error bars represent standard deviation. (□) Competition; (▪) L2-PEG36-EC20. […] At various times, animals were sacrificed by CO2 asphyxiation. […] Three mice bearing HT-29 xenografts were administered 10 nmol of conjugate via tail vein injection while an additional three mice also received 100-fold excess unconjugated inhibitor. A single mouse from each of the two groups was sacrificed for whole animal imaging and tissue/organ biodistribution analysis at 4, 9 and 24 hours post injection."}, "HT-29 cells [4]": {"test_system": "HT-29 cells", "format": "cell-based, human", "conditions": "for IC50: 2 h exposure, additional 66 h in fresh medium, read-out: IC50 (3H-thymidine incorporation)", "protocol": "After washing, the cells were incubated for […] and their viability was determined via ^3H-thymidine uptake.\nHT-29 cells were seeded on amine-coated 24-well plates and allowed to form monolayers. The spent medium in each well was replaced with fresh medium (0.5 mL) containing various concentrations of Tubulysin B or L2-Tubulysin B in the presence or absence of 100-fold excess CA IX inhibitor L2. After incubating for 2 h at 37° C., cells were rinsed 3 times with fresh medium and then incubated an additional 66 h at 37° C. in fresh medium. Spent medium in each well was again replaced with fresh medium (0.5 mL) containing ^3H-thymidine (1 μCi/ml) and the cells were incubated for an additional 4 h. After washing the cells 3 times with medium, they were dissolved in 0.5 mL of 0.25 M NaOH. Thymidine incorporation was then determined by counting cell-associated radioactivity using a scintillation counter (Packard, Packard Instrument Company). The IC50 value was derived from a plot of the percent of ^3H-thymidine incorporation versus log concentration using Graph Pad Prism 4 and TableCurve 2D software."}, "Maximum tolerated dose": {"test": "Maximum tolerated dose", "format": "in vivo, mice", "conditions": "for Euthanized (mice) / Healthy (mice) / Sick (mice): thrice weekly tail vein, three mice per group", "protocol": "Maximum tolerated dose. Various concentrations of L2-Tubulysin B were administered to male nu/nu mice thrice weekly via tail vein injection. Visibly sick mice were recorded and if necessary euthanized before the end of the experiment. […] Therefore, a dose of 2 μmol/kg was used for further in vivo efficacy studies."}, "HT29 subcutaneous tumors": {"test_system": "HT29 subcutaneous tumors", "test": "In vivo xenograft tumor efficacy of L2-Tubulysin B", "set-up": "species or system mice", "conditions": "for tumor growth: thrice weekly for 3 weeks", "protocol": "Once tumors reached a volume of ˜100 mm^3, mice were randomized into various treatment groups (n=3 for each IP group). L2-Tubulysin B (2 μmol/kg) was administered intraperitoneally in the presence or absence of 100-fold excess CA IX ligand L2 every other day for 9 doses. Tumor volume and weight were measured every other day. Error bars represent standard error of the mean. FIG. 10A: (●) PBS Control, (▴) L2-Tubulysin B, (□) Competition. FIG. 10B: (●) PBS Control, (▴) L2-Tubulysin B, (□) Competition.\nOnce tumors reached a volume of ˜100 mm^3, mice were randomized into various treatment groups (n=5 for each IV group). CA IX-Tubulysin B ([…]) was administered via tail vein injection in the presence or absence of 100-fold excess CA IX ligand every other day for 9 doses. Tumor volume and weight were measured every other day. Error bars represent standard error of the mean. FIG. 11A: (●) PBS Control, (▴) L2-Tubulysin B, (□) Competition. FIG. 11B: (●) PBS Control, (▴) L2-Tubulysin B, (□) Competition.\nIn vivo xenograft tumor efficacy of L2-Tubulysin B. HT29 cells (5.0×10^6) were injected into the shoulders of 5-6 week old female nu/nu mice. Tumors were measured in two perpendicular directions thrice weekly with vernier calipers and their volumes were calculated as 0.5×L×W^2, where L is the longest axis (in millimeters), and W is the axis perpendicular to L (in millimeters). Dosing of L2-Tubulysin B in the presence or absence of 100-fold excess CA IX inhibitor L2 was initiated when the subcutaneous tumors reached ˜100 mm^3 in volume. Dosing solutions were prepared in saline and filtered through a 0.22 μm filter. Solutions were administered via tail vein injection or intraperitoneally. Each mouse received 2 μmol/kg L2-Tubulysin B per injection. Injections were given thrice weekly for 3 weeks and the mice were weighed concurrently."}},
  "note": "Read-outs that look alike come from different tables or passages of the source.",
  "data": [
    {"smiles": "CN(C)c1ccc2c(-c3ccc(C(=O)NCCCCCNC(=O)CN(CCN(CC(=O)O)CC(=O)Nc4ccc(S(N)(=O)=O)cc4)CC(=O)Nc4ccc(S(N)(=O)=O)cc4)cc3C(=O)O)c3ccc(=[N+](C)C)cc-3oc2c1", "note": "[Conjugate L2-Rhodamine]", "values": [
      {"measurement": "binding to HT-29 cells and competition by excess unconjugated inhibitor", "setting": "HT-29 cells [1]", "value": "bound the cells and were competed in the presence of excess unconjugated inhibitor"},
      {"measurement": "binding in the presence of competing unconjugated CA IX inhibitor", "setting": "[2]; competing unconjugated CA IX inhibitor as printed (method: 100-fold excess L2)", "value": "essentially no binding was observed"},
      {"measurement": "binding to cell lines", "setting": "[2]; dye conjugate alone, 1 hour at 37° C., confocal microscopy", "value": "binding is observed in every cell line tested"}
    ]},
    {"smiles": "CN(C)c1ccc2c(-c3ccc(C(=O)NCCOCCOCCOCCOCCC(=O)Nc4cccc(NC(=O)Nc5ccc(S(N)(=O)=O)cc5)c4)cc3C(=O)O)c3ccc(=[N+](C)C)cc-3oc2c1", "note": "[Conjugate L3-Rhodamine]", "values": [
      {"measurement": "binding to HT-29 cells and competition by excess unconjugated inhibitor", "setting": "HT-29 cells [1]", "value": "bound the cells and were competed in the presence of excess unconjugated inhibitor"}
    ]},
    {"smiles": "N[C@H](CNC(=O)CCOCCOCCOCCOCCOCCOCCOCCOCCOCCOCCOCCOCCOCCOCCOCCOCCOCCOCCOCCOCCOCCOCCOCCOCCOCCOCCOCCOCCOCCOCCOCCOCCOCCOCCOCCOCCNC(=O)CN(CCN(CC(=O)O)CC(=O)Nc1ccc(S(N)(=O)=O)cc1)CC(=O)Nc1ccc(S(N)(=O)=O)cc1)C(=O)N[C@@H](CC(=O)O)C(=O)NC[C@H](CS)C(=O)O", "note": "[L2-PEG36-EC20]", "values": [
      {"measurement": "Kd", "setting": "HT-29 cells [3]", "value": 57, "unit": "nM"},
      {"measurement": "tumor intensity with concurrent 100-fold excess unconjugated inhibitor", "setting": "HT-29 xenograft tumors; 4, 9 and 24 hours post injection", "value": "did not exhibit any intensity in the tumor"},
      {"measurement": "relative average radioactive intensity in the tumor", "setting": "HT-29 xenograft tumors; 4 hours post injection", "value": "~1300"},
      {"measurement": "relative average radioactive intensity in the tumor", "setting": "HT-29 xenograft tumors; 9 hours post injection", "value": 750},
      {"measurement": "relative average radioactive intensity in the tumor", "setting": "HT-29 xenograft tumors; 24 hours post injection", "value": 350}
    ]},
    {"smiles": "CCCC(=O)OCN(C(=O)[C@@H](NC(=O)[C@H]1CCCCN1C)[C@@H](C)CC)[C@H](C[C@@H](OC(C)=O)c1nc(C(=O)N[C@@H](Cc2ccc(O)cc2)C[C@H](C)C(=O)NNC(=O)OCCSSC[C@H](NC(=O)[C@H](CC(=O)O)NC(=O)[C@@H](N)CNC(=O)CCOCCOCCOCCOCCOCCOCCOCCOCCOCCOCCOCCOCCNC(=O)CN(CCN(CC(=O)O)CC(=O)Nc2ccc(S(N)(=O)=O)cc2)CC(=O)Nc2ccc(S(N)(=O)=O)cc2)C(=O)O)cs1)C(C)C", "note": "[L2-Tubulysin B]", "values": [
      {"measurement": "IC50", "setting": "HT-29 cells [4]", "value": 4.4, "unit": "nM"},
      {"measurement": "cytotoxic effect with 100-fold excess of the unconjugated inhibitor", "setting": "HT-29 cells [4]; HT-29 cells", "value": "completely abrogated"},
      {"measurement": "adverse events", "setting": "Maximum tolerated dose; 1 μmol/kg", "value": "no adverse events were identified"},
      {"measurement": "Euthanized (mice)", "setting": "Maximum tolerated dose; 1 μmol/kg", "value": 0},
      {"measurement": "Healthy (mice)", "setting": "Maximum tolerated dose; 1 μmol/kg", "value": 3},
      {"measurement": "Sick (mice)", "setting": "Maximum tolerated dose; 1 μmol/kg", "value": 0},
      {"measurement": "Euthanized (mice)", "setting": "Maximum tolerated dose; 3 μmol/kg", "value": 0},
      {"measurement": "Healthy (mice)", "setting": "Maximum tolerated dose; 3 μmol/kg", "value": 2},
      {"measurement": "Sick (mice)", "setting": "Maximum tolerated dose; 3 μmol/kg", "value": 1},
      {"measurement": "Euthanized (mice)", "setting": "Maximum tolerated dose; 5 μmol/kg", "value": 2},
      {"measurement": "Healthy (mice)", "setting": "Maximum tolerated dose; 5 μmol/kg", "value": 0},
      {"measurement": "Sick (mice)", "setting": "Maximum tolerated dose; 5 μmol/kg", "value": 1},
      {"measurement": "signs of toxicity", "setting": "Maximum tolerated dose; highest dose", "value": "all mice showed signs of toxicity"},
      {"measurement": "tumor growth with 100-fold excess CA IX inhibitor L2", "setting": "HT29 subcutaneous tumors; 2 μmol/kg", "value": "growth of the tumors was similar to the control group"},
      {"measurement": "tumor growth", "setting": "HT29 subcutaneous tumors; 2 μmol/kg intraperitoneally", "value": "essentially halted tumor growth"},
      {"measurement": "tumor growth", "setting": "HT29 subcutaneous tumors; 2 μmol/kg via tail vein injection", "value": "essentially halted tumor growth"},
      {"measurement": "gross toxicity", "setting": "HT29 subcutaneous tumors; 2 μmol/kg, both routes", "value": "no gross toxicity was observed"},
      {"measurement": "loss of weight", "setting": "HT29 subcutaneous tumors; 2 μmol/kg, both routes", "value": "no loss of weight was observed"}
    ]},
    {"smiles": "N[C@H](CNC(=O)CCOCCOCCOCCOCCOCCOCCOCCOCCOCCOCCOCCOCCNC(=O)CCC(=O)Nc1cccc(NC(=O)Nc2ccc(S(N)(=O)=O)cc2)c1)C(=O)N[C@@H](CC(=O)O)C(=O)NC[C@H](CS)C(=O)O", "note": "[L3-PEG12-EC20]", "values": [
      {"measurement": "Kd", "setting": "HT-29 cells [3]", "value": 146, "unit": "nM"},
      {"measurement": "decrease of binding by addition of the PEG12-EC20", "setting": "HT-29 cells [3]; binding affinity of conjugate versus reported Ki of original ligand", "value": 162, "unit": "fold"}
    ]},
    {"smiles": "CCCC(=O)OCN(C(=O)[C@@H](NC(=O)[C@H]1CCCCN1C)[C@@H](C)CC)[C@H](C[C@@H](OC(C)=O)c1nc(C(=O)N[C@@H](Cc2ccc(O)cc2)C[C@H](C)C(=O)O)cs1)C(C)C", "note": "[Tubulysin B, reference compound]", "values": [
      {"measurement": "IC50", "setting": "HT-29 cells [4]", "value": 0.08, "unit": "nM"}
    ]}
  ]
}
